Measured values reported in patent US11279737B2, “Antimicrobial peptide variants and uses thereof” (ANTINBIO, INC., priority 2019, dated 2022).
Values after ≈ are worked out from the molar mass of the structure shown. Where a SMILES comes first, the peptide text is derived from it. Bridges are numbered along the chain shown (N, C = ends).

Experiments:
[1] = tested on: human erythrocytes; experiment: hemolytic assay; format: cell-based; settings: FIG. 2; for cell lysis (hemolysis) of human erythrocytes: peptide 0.5-500 μg/ml, 37° C., 60 minutes
Procedure: For the hemolysis assays, human erythrocytes were obtained from healthy donors, washed 3 times using sterilized PBS and re-suspended to a concentration of 2% (v/v) with PBS. The hegrisin, HCN2016-01 peptide, and plectasin (control) were diluted to concentrations of 500, 250, 125, 62.5, 32, 16, 8, 4, 2, 1, and 0.5 μg/ml. A 100 μL solution of each peptide and a 100 μL suspension of red blood cells were mixed and added to the wells of a 96-well plate. PBS was used as negative control and Triton X-100 was used as a positive control.
The samples were incubated at 37° C. for 60 minutes and gently stirred during the incubation period. Then, the samples were centrifuged at 2000 rpm for 5 minutes. A total of 100 μL of the supernatant in each well was transferred to a new 96-well plate and absorbance was measured at 490 nm using a microplate reader (Molecular Devices, USA).
For hemolysis assays, human erythrocytes were obtained from healthy donors, washed 3 times using sterilized PBS, and re-suspended to a concentration of 2% (v/v) with PBS. The HCN2016-01 peptide (SEQ ID NO: 2) and plectasin (control) were diluted to concentrations of 500; 250; 125; 62.5; 32; 16; 8; 4; 2; 1; and 0.5 μg/ml. A 100 μL of each peptide solution was mixed with a 100 μL solution of a red blood cell suspension and added to separate wells of a 96-well plate. PBS was used as negative control and Triton X-100 was used as a positive control. The samples were incubated at 37° C. for 60 minutes and gently stirred during the incubation period. The samples were then centrifuged at 2000 rpm for 5 minutes. A total of 100 μL of the supernatant in each well was transferred to a new 96-well plate and absorbance was measured at 490 nm using a microplate reader (Molecular Devices, USA).

[2] = tested on: B. longum ATCC 15707
[3] = tested on: E. coli ATCC 25922
[4] = tested on: L. lactis ATCC 19256
[5] = tested on: S. aureus MRSA ATCC 43300; settings: for Minimal inhibitory concentration (MIC): ATCC 43300
[6] = tested on: L. delbrueckii ATCC 9649
[7] = tested on: S. aureus ATCC 6538; settings: for Minimal inhibitory concentration (MIC): ATCC 6538
[8] = tested on: C. perfringens ATCC 13124
[9] = tested on: S. aureus ATCC 6538; experiment: inhibition zone assay; settings: 10 μg peptide per hole, 37° C., 16-18 hours
[10] = tested on: C. acnes ATCC 11827
[11] = tested on: S. salivarius ATCC 19258
[12] = tested on: S. epidermidis ATCC 14990; settings: for Minimal inhibitory concentration (MIC): ATCC 14990
[13] = tested on: B. subtilis ATCC 6633
[14] = tested on: L. rhamnosus ATCC 14957
[15] = tested on: L. casei ATCC 393
[16] = tested on: L. plantarum ATCC 14917

CC[C@H](C)[C@@H]1NC(=O)CNC(=O)CNC(=O)[C@H](Cc2ccccc2)NC(=O)[C@H](CCCCN)NC(=O)[C@@H]2CSSC[C@H](NC(=O)[C@H](CO)NC(=O)[C@H](Cc3c[nH]c4ccccc34)NC(=O)CN)C(=O)N[C@@H](CC(N)=O)C(=O)N[C@@H]([C@@H](C)CC)C(=O)N[C@@H](Cc3c[nH]c4ccccc34)C(=O)N[C@@H](CC(N)=O)C(=O)NCC(=O)N[C@@H](CC(N)=O)C(=O)N[C@@H](CC(=O)O)C(=O)N[C@@H](CCC(=O)O)C(=O)N3CCC[C@H]3C(=O)N[C@H]3CSSC[C@H](NC1=O)C(=O)N[C@@H](CCCCN)C(=O)N[C@H](C(=O)N[C@@H](Cc1ccc(O)cc1)C(=O)O)CSSC[C@H](NC(=O)[C@H](Cc1c[nH]cn1)NC(=O)[C@H](CCC(N)=O)NC(=O)[C@H](Cc1c[nH]cn1)NC3=O)C(=O)N[C@@H](CCCCN)C(=O)N[C@@H](CO)C(=O)N[C@@H]([C@@H](C)CC)C(=O)N[C@@H](CCCNC(=N)N)C(=O)NCC(=O)N[C@@H](Cc1ccc(O)cc1)C(=O)N[C@@H](CCCNC(=N)N)C(=O)NCC(=O)NCC(=O)N[C@@H](Cc1ccc(O)cc1)C(=O)N2 [HCN2016-01] (H-GWSCNIWNGNDEPCHQHCKSIRGYRGGYCKFGGICKCY-OH; disulfide 4-29, 14-35, 18-37 (inferred); N-terminus and C-terminus assumed)
cell lysis (hemolysis) of human erythrocytes [1]: no significant lysis
Minimal inhibitory concentration (MIC) ([2]; ATCC 15707): 8.0 µg/mL (≈ 1.85 µM)
activity against bacteria (in words) ([2]; B. longum ATCC 15707): strong activity
Minimal inhibitory concentration (MIC) ([3]; ATCC 25922): >500.0 µg/mL
activity against bacteria (in words) ([3]; Gram negative bacteria E. coli): minimal or no activity
Minimal inhibitory concentration (MIC) [4]: 0.50 µg/mL (≈ 0.115 µM)
Minimal inhibitory concentration (MIC) [5]: 0.73 µg/mL (≈ 0.168 µM)
activity against bacteria (in words) ([5]; S. aureus MRSA ATCC 43300): strong activity
antimicrobial activity compared to wild type hegrisin (in words) ([5]; S. aureus MRSA ATCC 43300): improved antimicrobial activity
Minimal inhibitory concentration (MIC) ([6]; ATCC 9649): 8.0 µg/mL (≈ 1.85 µM)
activity against bacteria (in words) ([6]; L. delbrueckii ATCC 9649): strong activity
Minimal inhibitory concentration (MIC) [7]: 0.30 µg/mL (≈ 0.0692 µM)
activity against bacteria (in words) ([7]; S. aureus ATCC 6538): strong activity
antimicrobial activity compared to wild type hegrisin (in words) ([7]; S. aureus ATCC 6538, lower MIC values): improved antimicrobial activity
activity against bacteria (in words) [8]: strong activity
Minimal inhibitory concentration (MIC) ([8]; ATCC 13124): 6.81 µg/mL (≈ 1.57 µM)
Activity (antimicrobial activity relative to unmodified hegrisin, zones of growth inhibition) [9]: 2
Minimal inhibitory concentration (MIC) ([10]; ATCC 11827): 8.0 µg/mL (≈ 1.85 µM)
activity against bacteria (in words) ([10]; C. acnes ATCC 11827): strong activity
Minimal inhibitory concentration (MIC) ([11]; ATCC 19258): 4.0 µg/mL (≈ 0.923 µM)
activity against bacteria (in words) ([11]; S. salivarius ATCC 19258): strong activity
Minimal inhibitory concentration (MIC) [12]: 0.31 µg/mL (≈ 0.0715 µM)
activity against bacteria (in words) ([12]; S. epidermidis ATCC 14990): strong activity
antimicrobial activity compared to wild type hegrisin (in words) ([12]; S. epidermidis ATCC 14990): improved antimicrobial activity
Minimal inhibitory concentration (MIC) ([13]; ATCC 6633): 0.50 µg/mL (≈ 0.115 µM)
activity against bacteria (in words) ([13]; B. subtilis ATCC 6633): strong activity
Minimal inhibitory concentration (MIC) [14]: 32.0 µg/mL (≈ 7.38 µM)
Minimal inhibitory concentration (MIC) [15]: >500.0 µg/mL
Minimal inhibitory concentration (MIC) [16]: 16.0 µg/mL (≈ 3.69 µM)

CC[C@H](C)[C@@H]1NC(=O)[C@H](CO)NC(=O)[C@H](CCCCN)NC(=O)[C@@H]2CSSC[C@@H](C(=O)N[C@@H](Cc3ccc(O)cc3)C(=O)O)NC(=O)[C@H](CCCCN)NC(=O)[C@@H]3CSSC[C@H](NC(=O)[C@@H]4CCCN4C(=O)[C@H](CCCCN)NC(=O)[C@H](CC(=O)O)NC(=O)[C@H](CC(N)=O)NC(=O)CNC(=O)CNC(=O)[C@H](Cc4c[nH]c5ccccc45)NC(=O)[C@H]([C@@H](C)CC)NC(=O)[C@H]([C@@H](C)O)NC(=O)[C@@H](NC(=O)CNC(=O)[C@H](Cc4ccccc4)NC(=O)CN)CSSC[C@H](NC(=O)[C@H](Cc4ccc(O)cc4)NC(=O)CNC(=O)CNC(=O)[C@H](CCCCN)NC(=O)[C@H](Cc4ccc(O)cc4)NC(=O)CNC(=O)[C@H](CCCCN)NC1=O)C(=O)N[C@@H](CCCCN)C(=O)N[C@@H](C(C)C)C(=O)NCC(=O)NCC(=O)N[C@@H](C(C)C)C(=O)N3)C(=O)N[C@@H](Cc1c[nH]cn1)C(=O)N[C@@H](CCCNC(=N)N)C(=O)N[C@@H](Cc1c[nH]cn1)C(=O)N2 [Hegrisin, reference compound] (H-GFGCTIWGGNDKPCHRHCKSIKGYKGGYCKVGGVCKCY-OH; disulfide 4-29, 14-35, 18-37; N-terminus and C-terminus assumed)
cell lysis (hemolysis) of human erythrocytes [1]: no significant lysis
Minimal inhibitory concentration (MIC) [5]: 1.34 µg/mL (≈ 0.326 µM)
Minimal inhibitory concentration (MIC) [7]: 1.67 µg/mL (≈ 0.407 µM)
Activity (antimicrobial activity relative to unmodified hegrisin, zones of growth inhibition) [9]: 1
Minimal inhibitory concentration (MIC) [12]: 0.38 µg/mL (≈ 0.0926 µM)

plectasin: defensin antimicrobial peptide isolated from the mushroom Pseudoplectania nigrella; control in the hemolysis assay (GFGCNGPWDEDDMQCHNHCKSIKGYKGGYCAKGGFVCKCY; PLECTASIN)
change of cell lysis with rising concentration ([1]; concentration increased from 62.5 μg/ml to 500 μg/ml): increased significantly
cell lysis (hemolysis) of human erythrocytes [1]: lysis at nearly all concentrations
